These results are taken from patent US9994566B2, “Compound of 5-hydroxyl-1,7-naphthyridine substituted by aryl or heteroaryl, preparation method thereof and pharmaceutical use thereof” (SHENYANG SUNSHINE PHARMACEUTICAL CO. LTD., priority 2015, dated 2018).

“And” between values parts separate entries of the source, which are not always exact repeats. Identical values can stand only once.

Assay [1] deals with male Balb/c mice. Nature of the assay: Effect on increasing erythrocyte of normal mice: reticulocyte (RETIC) count. Particulars: 25 mg/kg, oral, once a day × 3, four hours after the last administration; for RETIC, individual mice (Mice No. 1-8): one value per mouse; for RETIC, Average: orbital blood. The assay is classed as in vivo. The protocol: Biological Example 3: Effect of the Compounds of the Present Invention on Increasing Erythrocyte of Normal Mice
80 male Balb/c mice were divided into 11 groups, with 8 animals for each drug group, 10 animals for blank control group. Drug group: AKB-6548, 100 mg/kg, oral administration, once a day×3; FG-4592, 25 mg/kg, oral administration, once a day×3; EPO, 100 IU/kg, Day 1 and Day 3, subcutaneous injection, as positive control groups. Each of the compounds of the present invention was orally administrated at 25 mg/kg, once a day×3. Four hours after the last administration, orbital blood of all animals were collected and treated with EDTA-K2 anticoagulant, and reticulocytes (RETIC) were counted with a blood cell automated analyzer.

Assay [2] deals with hepatoma cells Hep3B. Nature of the assay: Promotion of erythropoietin (EPO) expression in hepatoma cells Hep3B in vitro (ELISA). Particulars: Hep3B supernatant, 24 hours, test doses 100 μmol/L and 10 μmol/L (dose of the tabulated value not given). The format is cell-based, Human. The source says: Biological Example 1: Development and Screening of In Vitro Detection Methods: Promotion of Erythropoietin Expression in Hepatoma Cells Hep3B In Vitro by HIF-PHD2 Inhibitor Compounds
The complete medium for culture of Experimental hepatoma cells Hep3B (China Center for Type Culture Collection, CCTCC) was MEM (Cat# GNM 41500, GIBCO, provided by Hangzhou Genom Biopharmaceutical Technology Co., Ltd) supplemented with 10% serum FBS (Cat#10099-141, GIBCO) and 1% P/S (Cat#GNM15140, provided by Hangzhou Genom Biopharmaceutical Technology Co., Ltd). Cells were cultured in a 37° C., 5% CO2 incubator. Experimental reagents included dimethyl sulfoxide (for molecular biology, >=99.9%, Catalog # D8418) purchased from Sigma. The ELISA kit was purchased from Quantikine IVD ELISA, Human Erythropoietin (R&D, DEP00). The test control AKB-6548 was prepared by the inventors or obtained by commercial purchase. The test substance was stored at −20° C. in the dark.
The test substance and the positive control substance were fully dissolved in sterile water or dimethylsulfoxide under dark conditions and prepared into a stock solution at a concentration of 10^−1 mol/L or 10^−2 mol/L. Each of the stock solutions was stored at −20° C. MEM medium containing 0.5% FBS was used as a diluent to dilute the stock solution of the test substance, to prepare a diluted test substance at a concentration of 100 μmol/L and 10 μmol/L. To a 96-well culture plate was added 200 μl/well (1.5 or 2.0×10^4 cells/well) of hepatoma cells Hep3B complete medium suspension and incubated overnight at 37° C. in a 5% CO2 incubator. The solution in the 96-well culture plate was removed and the cells were washed once with the MEM medium containing 0.5% FBS. 200 μl/well of the test substance was added in the dark, at a dose of 100 μmol/L and 10 μmol/L, and each dose set 2 wells, a test well and a spare well. A cell control well was prepared by replacing the test solution with the diluent (without test substance and solvent). A solvent control well was prepared by replacing the test solution with the diluent containing the corresponding concentration of solvent (dimethylsulfoxide) (without test substance). They were cultured in a 5% CO2 incubator at 37° C. for 24 hours. The supernatant was absorbed as a sample and cryopreserved at −20° C. for use. 100 μl/well of stop solution was added. OD value was detected by microplate reader A450 nm-A600 nm. The expression level of EPO (mIU/mL) promoted by the test substance was obtained according to the standard curve.

Assay [3] addresses HIF Prolyl hydroxylases 2 (PHD2) (Homo sapiens, UniProt Q9GZT9). Nature of the assay: PHD2 inhibition, fluorescence polarization (FP) detection of HIF-1α / VBC complex interaction. Particulars: PHD2 0.5 μg/μl, FAM-HIF (556-575) 1 μM, 30 minutes room temperature. The format is biochemical. As to the method:
The interaction between hypoxia-inducible factor HIF-1α and VBC complex (von Hippel-Lindau protein-Elongin B-Elongin C, VBC) was detected by Fluorescence polarization (FP) method, to measure the enzyme inhibitory activity of the HIF Prolyl hydroxylases 2 (PHD2) inhibitor compounds.
Subsequently, the desired concentration of the test compound or the positive compound was added (the compound was replaced by the buffer in the negative control and the positive control). Finally, PHD2 was added at a final concentration of 0.5 μg/μl (PHD2 was replaced by the buffer in the negative control). They were mixed well and allowed to stand at room temperature for 30 minutes in the dark followed by 95° C. water bath for 1 minute, and then the reaction was terminated. After the temperature drops to room temperature, the sample was prepared well for use. EBC buffer (50 mM Tris.HCl, 120 mM NaCl, 0.5% NP-40) was added to the corresponding wells of a black 96-well test plate. A GST-VBC complex was added to the corresponding test wells at a final concentration of 300 nM (using the wells containing only EBC buffer as blank wells). Subsequently, the corresponding PHD2 prolyl hydroxylation reaction sample was added in the dark as a substrate with a final concentration of 100 nM. After mixing well, the lateral and longitudinal fluorescence intensity values were measured using a full-wavelength multifunctional microplate reader (TECAN infinite M1000) at an excitation wavelength of […] and an emission wavelength of 518 nm.
The fluorescence polarization (mP) was calculated: mP=1000×(lateral value−G factor×longitudinal value)/(lateral value+G factor×longitudinal value) wherein, lateral value=lateral fluorescence intensity value of test well−lateral fluorescence intensity value of blank well, longitudinal value=longitudinal fluorescence intensity value of test well−longitudinal fluorescence intensity value of blank well, […]
The IC50 was calculated using the non-linear regression data analysis method of Graphpad Prism 4.0 software ([…]).

Sequence of HIF Prolyl hydroxylases 2 (PHD2) (Q9GZT9 whole entry, species assumed): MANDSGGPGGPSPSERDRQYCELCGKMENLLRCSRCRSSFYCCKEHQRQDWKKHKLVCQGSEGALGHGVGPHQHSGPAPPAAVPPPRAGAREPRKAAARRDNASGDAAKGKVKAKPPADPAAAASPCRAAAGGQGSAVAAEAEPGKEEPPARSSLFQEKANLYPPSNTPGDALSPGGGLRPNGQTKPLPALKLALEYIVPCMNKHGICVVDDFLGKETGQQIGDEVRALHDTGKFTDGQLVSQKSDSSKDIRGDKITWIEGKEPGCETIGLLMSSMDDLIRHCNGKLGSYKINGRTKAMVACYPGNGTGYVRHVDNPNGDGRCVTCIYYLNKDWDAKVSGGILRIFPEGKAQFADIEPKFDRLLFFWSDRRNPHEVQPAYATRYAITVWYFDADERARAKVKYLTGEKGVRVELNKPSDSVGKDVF

With `O=C(O)CNC(=O)c1ncc2nc(-c3cccc(Cl)c3)ccc2c1O` [Compound 6, 2-{5-hydroxy-[2-(3-chloro)-phenyl]-[1,7]-naphthyridine-6-formamido} acetic acid], in assay [1], the “RETIC, individual mice (Mice No. 1-8)” value was 5.2 (2×) and 4.8 and 6.3 and 4.7 and 6.4 and 3.9 and 5.4; the “RETIC, Average” value turned out to be 5.24. Besides, the “EPO level of the test substance” value in assay [2] was found to be 2.268 mIU/mL. Besides, inhibition in assay [3] was half-maximal at 0.41 µM (IC50).

For the molecule `O=C(O)CNC(=O)c1ncc2nc(-c3cccc4ccccc34)ccc2c1O` [Compound 14, [(5-hydroxy-2-(naphthalene-1-yl)-[1,7]naphthyridine-6-carbonyl)-amino]-acetic acid], in assay [1], the “RETIC, individual mice (Mice No. 1-8)” value was 4 (3×) and 3.8 and 4.1 and 5.8 and 3.4 and 4.3; the “RETIC, Average” value came out at 4.18. In addition, the “EPO level of the test substance” value in assay [2] was found to be 5.435 mIU/mL. Inhibition in assay [3] was half-maximal at 10 µM (IC50).

On to `COc1cccc(-c2ccc3c(O)c(C(=O)NCC(=O)O)ncc3n2)c1` [Compound 15], for which, in assay [1], the “RETIC, individual mice (Mice No. 1-8)” value is 4.9 (3×) and 4.6 and 4.1 and 3.7 and 3.8 and 3.1; the “RETIC, Average” value is given as 4.25. In addition, in assay [2], the “EPO level of the test substance” value was determined as 6.316 mIU/mL. For the same molecule, in assay [3], the half-inhibitory concentration (IC50) came to 7.7 µM.

Take `O=C(O)CNC(=O)c1ncc2nc(-c3ccc(C(F)(F)F)cc3)ccc2c1O` [Compound 23, 2-{5-hydroxy-[2-(4-trifluoromethyl)-phenyl]-[1,7]-napthyridine-6-formamido} acetic acid]: in assay [1], the “RETIC, individual mice (Mice No. 1-8)” value is 2.9 and 3.2 (3×) and 3 and 5.1 and 9.1; the “RETIC, Average” value is 4.24. In assay [2], the “EPO level of the test substance” value amounted to 0.72 mIU/mL. Moreover, in assay [3], half-maximal inhibition (IC50) required 5.2 µM.
